Results on three compounds are retold here after patent publication US12077503B2, “Substituted cyclic amides and their use as herbicides” (FMC CORPORATION, priority 2015, dated 2024).

Assay type in all cases: in vivo
The subject of assay [1] is ducksalad (Heteranthera limosa). Briefly: Test B flooded paddy test. The settings on record: Heteranthera limosa, 250 g ai/ha, Flood; 0 to 100 scale where 0 is no effect and 100 is complete control; read-out: Ducksalad plant response rating. A digest of the protocol: (§1)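 Plants at 2-leaf stage flooded to 3 cm above soil, with compounds applied directly to paddy water and that depth maintained. Plants kept in greenhouse 13–15 d. Visual rating versus controls on a 0 (no effect) to 100 (complete control) scale.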

For assay [2], the system named is sedge, umbrella (small-flower umbrella sedge, Cyperus difformis). Description: Test B flooded paddy test. The settings on record: Cyperus difformis, 250 g ai/ha, Flood; 0 to 100 scale where 0 is no effect and 100 is complete control; read-out: Sedge, Umbrella plant response rating. A digest of the protocol:
as §1

Another assay deals with rice (Oryra sativa). Briefly: Test B flooded paddy test. To be noted: Oryza sativa, 250 g ai/ha, Flood; 0 to 100 scale where 0 is no effect and 100 is complete control; read-out: Rice plant response rating. A digest of the protocol: as §1
The subject of assay [3] is barnyardgrass (Echinochloa crus-galli). Description: Test B flooded paddy test. To be noted: Echinochloa crus-galli, 250 g ai/ha, Flood; 0 to 100 scale where 0 is no effect and 100 is complete control; read-out: Barnyardgrass plant response rating. A digest of the protocol:
as §1

For the next assay, the system named is corn (Zea mays). Description: Test A postemergence. The settings on record: Zea mays, post-emergence, 240 h, Postemergence; for plant injury at 125 g/ha: 125 g ai/ha, visual rating about 10 d after treatment, read-out: Corn plant response rating (0 to 100 scale); for Corn plant response rating (crop injury, 0 = no effect, 100 = complete kill) at 500 g/ha: 500 g ai/ha, visual injury, 0 to 100 scale (0 no effect, 100 complete control), approx. 10 d. A digest of the protocol: (§2)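 In a loam soil and sand blend, planted seeds got a preemergence directed soil spray, and young plants at the one- to two-leaf stage, 2–10 cm high, got a postemergence application; ~10 d greenhouse hold; injury rated visually, 0 = none, 100 = complete control.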

Assay [4] concerns ragweed (common ragweed, Ambrosia elatior). Description: Test A postemergence. To be noted: Ambrosia artemisiifolia, post-emergence, 240 h, Postemergence; for pest or weed control at 125 g/ha: 125 g ai/ha, visual rating about 10 d after treatment, read-out: Ragweed plant response rating (0 to 100 scale); for pest or weed control at 500 g/ha: 500 g ai/ha, visual injury, 0 to 100 scale (0 no effect, 100 complete control), approx. 10 d, read-out: Plant response rating, Ragweed. A digest of the protocol:
as §2

Assay [5] concerns blackgrass (Alopecurus myosuroides). Briefly: Test A postemergence. To be noted: Alopecurus myosuroides, post-emergence, 240 h, Postemergence; for pest or weed control at 125 g/ha: 125 g ai/ha, visual rating about 10 d after treatment, read-out: Blackgrass plant response rating (0 to 100 scale); for pest or weed control at 500 g/ha: 500 g ai/ha, visual injury, 0 to 100 scale (0 no effect, 100 complete control), approx. 10 d, read-out: Plant response rating, Blackgrass. A digest of the protocol:
as §2

Assay [6] deals with barnyardgrass (Echinochloa crus-galli). Description: Test A postemergence. The settings on record: Echinochloa crus-galli, post-emergence, 240 h, Postemergence; for pest or weed control at 125 g/ha: 125 g ai/ha, visual rating about 10 d after treatment, read-out: Barnyardgrass plant response rating (0 to 100 scale, 0 no effect, 100 complete control); for pest or weed control at 500 g/ha: 500 g ai/ha, visual injury, 0 to 100 scale (0 no effect, 100 complete control), approx. 10 d, read-out: Plant response rating, Barnyardgrass. A digest of the protocol: as §2

The subject of assay [7] is pigweed (Amaranthus retroflexus). Briefly: Test A postemergence. To be noted: Amaranthus retroflexus, post-emergence, 240 h, Postemergence; for pest or weed control at 125 g/ha: 125 g ai/ha, visual rating about 10 d after treatment, read-out: Pigweed plant response rating (0 to 100 scale); for pest or weed control at 500 g/ha: 500 g ai/ha, visual injury, 0 to 100 scale (0 no effect, 100 complete control), approx. 10 d, read-out: Plant response rating, Pigweed. Summed up:
as §2

In assay [8] the test system is wheat (Triticum aestivum). Description: Test A postemergence. The settings on record: Triticum aestivum, post-emergence, 240 h, Postemergence; for plant injury at 125 g/ha: 125 g ai/ha, visual rating about 10 d after treatment, read-out: Wheat plant response rating (0 to 100 scale); for plant injury at 500 g/ha: 500 g ai/ha, visual injury, 0 to 100 scale (0 no effect, 100 complete control), approx. 10 d, read-out: Plant response rating, Wheat. Summed up:
as §2

For assay [9], the system named is Galium (catchweed bedstraw, Galium aparine). Description: Test A postemergence. The settings on record: Galium, post-emergence, 240 h, Postemergence; for pest or weed control at 125 g/ha: 125 g ai/ha, visual rating about 10 d after treatment, read-out: Galium plant response rating (0 to 100 scale); for pest or weed control at 500 g/ha: 500 g ai/ha, visual injury, 0 to 100 scale (0 no effect, 100 complete control), approx. 10 d, read-out: Plant response rating, Galium. A digest of the protocol: as §2

The subject of assay [10] is giant foxtail (Setaria faberii). Description: Test A postemergence. The settings on record: Setaria faberi, post-emergence, 240 h, Postemergence; for pest or weed control at 125 g/ha: 125 g ai/ha, visual rating about 10 d after treatment, read-out: Foxtail, Giant plant response rating (0 to 100 scale); for pest or weed control at 500 g/ha: 500 g ai/ha, visual injury, 0 to 100 scale (0 no effect, 100 complete control), approx. 10 d, read-out: Plant response rating, Foxtail, Giant. Summed up: as §2

Another assay deals with Kochia (Kochia scoparia). Description: Test A postemergence. To be noted: Bassia scoparia, post-emergence, 240 h, Postemergence; for pest or weed control at 125 g/ha: 125 g ai/ha, visual rating about 10 d after treatment, read-out: Kochia plant response rating (0 to 100 scale); for pest or weed control at 500 g/ha: 500 g ai/ha, visual injury, 0 to 100 scale (0 no effect, 100 complete control), approx. 10 d, read-out: Plant response rating, Kochia. Summed up: as §2

Assay [11] has as its system ryegrass, Italian (Italian ryegrass, Lolium multiflorum). Briefly: Test A postemergence. The settings on record: Lolium multiflorum, post-emergence, 240 h, Postemergence; for pest or weed control at 125 g/ha: 125 g ai/ha, visual rating about 10 d after treatment, read-out: Ryegrass, Italian plant response rating (0 to 100 scale); for pest or weed control at 500 g/ha: 500 g ai/ha, visual injury, 0 to 100 scale (0 no effect, 100 complete control), approx. 10 d, read-out: Plant response rating, Ryegrass, Italian. Summed up:
as §2

With `Cc1nc([C@H]2CN(C)C(=O)[C@@H]2C(=O)Nc2cccc(F)c2F)cs1` [Compound 1281], the pest or weed control at 250 g/ha worked out at 50% in assay [1], 0% in [2], 0% with rice (Oryra sativa) and 0% in assay [3]. Also, the plant injury at 125 g/ha (in the assay on corn (Zea mays); in [8]) was 0% in each case. For the same compound, the Corn plant response rating (crop injury, 0 = no effect, 100 = complete kill) at 500 g/ha in the assay with corn (Zea mays) turned out to be 0%. Further, the pest or weed control at 125 g/ha was 0% in assay [4]; 0% in [5]; 20% in assay [6]; 0% in assay [7]; 0% in [9]; 20% in assay [10]. Besides, the pest or weed control at 125 g/ha (in the assay with Kochia (Kochia scoparia); in assay [11]) was 0% throughout. Further, the pest or weed control at 500 g/ha in assay [4] stood at 0%; in assay [5], 0%; in [6] it was 80%; in [7], 0%; in assay [9], 50%; in assay [10], 30%. The results for the pest or weed control at 500 g/ha (in the assay with Kochia (Kochia scoparia); in assay [11]) were 30% and 0%, respectively. In assay [8], the plant injury at 500 g/ha was 0%.
Take `COc1cc([C@H]2CN(C)C(=O)[C@@H]2C(=O)Nc2ccccc2F)ccc1F` [Compound 1298]: the pest or weed control at 250 g/ha was determined as 80% in assay [1], 0% in [2], 15% in the assay on rice (Oryra sativa) and 50% in assay [3]. For the same compound, the plant injury at 125 g/ha (in the assay with corn (Zea mays); in [8]) was 0% each time. The Corn plant response rating (crop injury, 0 = no effect, 100 = complete kill) at 500 g/ha in the assay on corn (Zea mays) is 0%. The pest or weed control at 125 g/ha in assay [4] stood at 0%; in [5], 0%; in assay [6] it was 80%; in assay [7], 0%; in [9] it was 0%; in assay [10], 70%. Besides, the pest or weed control at 125 g/ha (in the assay on Kochia (Kochia scoparia); in assay [11]) was 0% throughout. The pest or weed control at 500 g/ha worked out at 0% in assay [4]; 0% in assay [5]; 80% in [6]; 0% in [7]; 20% in assay [9]; 90% in assay [10]. For the same compound, the pest or weed control at 500 g/ha (in the assay on Kochia (Kochia scoparia); in [11]) was 0% each time. Also, in assay [8], the plant injury at 500 g/ha was determined as 20%.
Turning to `COc1cc([C@H]2CN(C)C(=O)[C@@H]2C(=O)Nc2cccc(F)c2C)ccc1F` [Compound 1300], the pest or weed control at 250 g/ha in [1] turned out to be 80%; in [2], 0%; with rice (Oryra sativa) it was 25%; in [3] it was 65%. The plant injury at 125 g/ha in the assay with corn (Zea mays) is 20%; in assay [8] it was 0%. The Corn plant response rating (crop injury, 0 = no effect, 100 = complete kill) at 500 g/ha with corn (Zea mays) is 60%. The pest or weed control at 125 g/ha in [4] was determined as 0%; in [5] it was 30%; in assay [6], 80%; in assay [7], 0%; in assay [9], 20%; in assay [10] it was 80%. The pest or weed control at 125 g/ha (with Kochia (Kochia scoparia); in assay [11]) was 0% each time. For the same compound, the pest or weed control at 500 g/ha came out at 0% in assay [4]; 50% in assay [5]; 90% in assay [6]; 0% in [7]; 40% in assay [9]; 90% in assay [10]. The pest or weed control at 500 g/ha in the assay on Kochia (Kochia scoparia) turned out to be 0%; in assay [11], 30%. Besides, in assay [8], the plant injury at 500 g/ha worked out at 50%.
